Here are results for 3 compounds from patent EP0982317A1, “Bivalent inhibitors of the proteasome” (Max-Planck-Gesellschaft zur Förderung der Wissenschaften …, priority 1998, dated 2000).

Assay type in all cases: biochemical
The target of assay [1] is T1, yeast proteasome β1/β1' (PGPH) (Saccharomyces cerevisiae, UniProt P38624). Kind of assay: Proteasome assay, PGPH activity (fluorogenic substrate Z-Leu-Leu-Gly-βNA). To be noted: 6.67 nM proteasome, Tris-buffer pH 7.5, incubated with inhibitor 1 h at 37°C, Z-Leu-Leu-Gly-βNA 40 µM, read-out: Inhibition of yeast proteasome (IC50) β1/β1'. As for the experimental part: (§1) A solution of proteasome from Saccharomyces cerivisiae in Tris-buffer (pH 7.5; 450 µl; 6.67 nM for PGPH, 5.56 nM for trypsin-like and 1.11 nM for chymotrypsin-like activity) was incubated with the inhibitors at varying concentrations ([…]) for 1 h at 37°C. The fluorogenic substrates for PGPH (Z-Leu-Leu-Gly-βNA, 40 µM), trypsin-like (Bz-Phe-Val-Arg-AMC, 8 µM) and chymotrypsin-like assays (Suc-Leu-Leu-Val-Tyr-AMC, 8 µM) were dissolved in the same Tris-buffer with a minimum amount of DMSO and added to the enzyme solution at 37 °C to reach a final volume of 500 µl. Fluorescence excitation/emission wavelengths were 360 nm/460 nm for AMC and 335 nm/410 nm for βNA. The rates of hydrolysis were monitored by the fluorescence increase and the initial linear portions of curves (100-300 sec) were used to calculate the IC50 values.

Assay [2] addresses T2, yeast proteasome β2/β2' (trypsin-like activity) (Saccharomyces cerevisiae, UniProt P25043). Kind of assay: Proteasome assay, trypsin-like activity (fluorogenic substrate Bz-Phe-Val-Arg-AMC). Also on record: Three of the seven different β-type subunits are processed at the threonine-1 residue. The following applies: 5.56 nM proteasome, Tris-buffer pH 7.5, incubated with inhibitor 1 h at 37°C, Bz-Phe-Val-Arg-AMC 8 µM, read-out: Inhibition of yeast proteasome (IC50) β2/β2'. As for the experimental part: as §1

In assay [3] the target is T3, yeast proteasome β5/β5' (chymotrypsin-like activity) (Saccharomyces cerevisiae, UniProt P30656). Kind of assay: Proteasome assay, chymotrypsin-like activity (fluorogenic substrate Suc-Leu-Leu-Val-Tyr-AMC). Also on record: Three of the seven different β-type subunits are processed at the threonine-1 residue. The following applies: 1.11 nM proteasome, Tris-buffer pH 7.5, incubated with inhibitor 1 h at 37°C, Suc-Leu-Leu-Val-Tyr-AMC 8 µM, read-out: Inhibition of yeast proteasome (IC50) β5/β5'. As for the experimental part: as §1

The target of assay [4] is T1, yeast proteasome β1/β1' (PGPH). Kind of assay: Proteasome assay, PGPH activity (fluorogenic substrate Z-Leu-Leu-Gly-βNA). Also on record: endogenous in cells; host or cells: Saccharomyces cerevisiae (isolated native complex; purification, strain and supplier not described). To be noted: 6.67 nM proteasome, Tris-buffer pH 7.5, incubated with inhibitor 1 h at 37°C, Z-Leu-Leu-Gly-βNA 40 µM, read-out: Inhibition of yeast proteasome (IC50) β1/β1'. As for the experimental part:
as §1

The target of assay [5] is T2, yeast proteasome β2/β2' (trypsin-like activity). Kind of assay: Proteasome assay, trypsin-like activity (fluorogenic substrate Bz-Phe-Val-Arg-AMC). Also on record: endogenous in cells; host or cells: Saccharomyces cerevisiae (isolated native complex; purification, strain and supplier not described). To be noted: 5.56 nM proteasome, Tris-buffer pH 7.5, incubated with inhibitor 1 h at 37°C, Bz-Phe-Val-Arg-AMC 8 µM, read-out: Inhibition of yeast proteasome (IC50) β2/β2'. As for the experimental part: as §1

Assay [6] deals with T3, yeast proteasome β5/β5' (chymotrypsin-like activity). Kind of assay: Proteasome assay, chymotrypsin-like activity (fluorogenic substrate Suc-Leu-Leu-Val-Tyr-AMC). Also on record: endogenous in cells; host or cells: Saccharomyces cerevisiae (isolated native complex; purification, strain and supplier not described). To be noted: for IC50: chymotrypsin-like activity, 1.11 nM proteasome, Tris-buffer pH 7.5, incubated with inhibitor 1 h at 37°C, Suc-Leu-Leu-Val-Tyr-AMC 8 µM, read-out: Inhibition of yeast proteasome (IC50) β5/β5'. As for the experimental part: as §1

Like-named read-outs stand apart in the source and are kept apart here. Where a SMILES comes first, the peptide text is derived from it. [ ]: non-standard residue; d: D form. Nle = CCCC[C@H](N)C(=O)O A value given as a limit tells only on which side of the number the result lay.

Consider `CCCC[C@@H](C=O)NC(=O)[C@H](CC(C)C)NC(=O)[C@H](CC(C)C)NC(C)=O` [Inhibitor 1, Ac-Leu-Leu-Nle-H] (Ac-Leu-Leu-[Nle]-aldehyde), for which the IC50 in assay [1] was over 100 µM; in assay [2], over 100 µM; in assay [3], 2.1 µM.
On to “(PEG)18-25-[NH-CO-(CH2)2-CO-Leu-Leu-Nle-H]2 [Inhibitor 3]”, for which the IC50 in assay [4] is over 100 µM; in assay [5] it was over 100 µM; in assay [6], 0.017 µM. The “increase in binding affinity” value in assay [6] (chymotryptic activity, compared to inhibitor 1 or to the monovalent inhibitor 2) is reported as “about two orders of magnitude”.
In the case of “HOOC-(CH2)2-CO-NH-(PEG)18-25-NH-(CH2)2-CO-Leu-Leu-Nle-H [Inhibitor 2]”, the IC50 in assay [4] was over 100 µM; in assay [5], over 100 µM; in assay [6] it was 1.8 µM.
